Columns and labels:
Format in all cases: biochemical
JNK3 = JNK3 (Homo sapiens, UniProt P53779); assay: In vitro JNK3 inhibition (Table 1)
Method: (§1) In vitro assays for the determination of JNK activities are known in the art and exemplary assay formats are described herein.
(§2) IC50 values in Table 1 were determined using the procedures as described in U.S. Pat. No. 8,450,353.

JNK1 = JNK1 (Homo sapiens, UniProt P45983); assay: In vitro JNK1 inhibition (Table 1)
Method: as §1, §2

JNK2 = JNK2 (Homo sapiens, UniProt P45984); assay: In vitro JNK2 inhibition (Table 1)
Method: as §1, §2

Chain of JNK2 (P45984 whole entry, species assumed): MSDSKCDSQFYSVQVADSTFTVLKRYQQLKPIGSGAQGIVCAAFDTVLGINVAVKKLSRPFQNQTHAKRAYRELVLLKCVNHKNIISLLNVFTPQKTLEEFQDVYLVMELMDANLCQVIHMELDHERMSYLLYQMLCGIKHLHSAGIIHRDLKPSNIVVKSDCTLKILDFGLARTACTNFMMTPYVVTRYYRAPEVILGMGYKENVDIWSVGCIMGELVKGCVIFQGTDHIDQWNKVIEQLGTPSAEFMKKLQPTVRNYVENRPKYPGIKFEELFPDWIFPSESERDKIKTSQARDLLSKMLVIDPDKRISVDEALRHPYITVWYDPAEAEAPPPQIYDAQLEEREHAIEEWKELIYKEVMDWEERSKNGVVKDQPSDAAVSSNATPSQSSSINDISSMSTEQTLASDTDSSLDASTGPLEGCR
Chain of JNK3 (P53779 whole entry, species assumed): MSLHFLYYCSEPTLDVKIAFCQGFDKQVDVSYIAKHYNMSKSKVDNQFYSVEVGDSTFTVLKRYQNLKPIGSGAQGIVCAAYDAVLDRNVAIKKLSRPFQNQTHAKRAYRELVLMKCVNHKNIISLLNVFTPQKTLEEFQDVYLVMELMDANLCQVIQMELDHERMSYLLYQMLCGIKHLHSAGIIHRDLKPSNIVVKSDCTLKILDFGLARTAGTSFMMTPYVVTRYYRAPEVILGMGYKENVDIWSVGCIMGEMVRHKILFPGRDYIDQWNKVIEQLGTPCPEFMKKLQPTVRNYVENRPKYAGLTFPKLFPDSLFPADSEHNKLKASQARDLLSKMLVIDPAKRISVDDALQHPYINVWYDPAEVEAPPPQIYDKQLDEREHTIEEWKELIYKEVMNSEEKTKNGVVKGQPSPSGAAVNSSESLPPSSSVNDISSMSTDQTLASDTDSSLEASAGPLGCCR
Chain of JNK1 (P45983 whole entry, species assumed): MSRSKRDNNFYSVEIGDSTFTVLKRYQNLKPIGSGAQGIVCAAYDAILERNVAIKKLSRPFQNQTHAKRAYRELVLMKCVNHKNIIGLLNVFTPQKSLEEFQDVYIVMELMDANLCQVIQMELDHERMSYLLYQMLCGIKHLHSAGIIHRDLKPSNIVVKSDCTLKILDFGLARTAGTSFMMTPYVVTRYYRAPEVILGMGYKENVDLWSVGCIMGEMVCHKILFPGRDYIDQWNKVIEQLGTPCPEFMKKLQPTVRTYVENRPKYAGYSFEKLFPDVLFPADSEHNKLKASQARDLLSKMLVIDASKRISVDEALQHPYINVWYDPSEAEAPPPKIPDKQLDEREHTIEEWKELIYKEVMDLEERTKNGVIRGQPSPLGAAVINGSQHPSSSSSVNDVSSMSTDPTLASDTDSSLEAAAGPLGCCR

| IC50 (JNK3) [µM] | IC50 (JNK1) [µM] | IC50 (JNK2) [µM] | SMILES |
| --- | --- | --- | --- |
| 0.1 to 10 | 0.1 to 10 | 0.1 to 10 | O=C(Cn1c(=O)ccc2cc(C(F)(F)F)ccc21)N(CCCN1CCCC1)c1scc(Cl)c1-c1nc[nH]n1 [N-(4-chloro-3-(1H-1,2,4-triazol-3-yl)thiophen-2-yl)-2-(2-oxo-6-(trifluoromethyl)quinolin-1(2H)-yl)-N-(3-(pyrrolidin-1-yl)propyl)acetamide] |
| < 0.1 | < 0.1 | < 0.1 | O=C(Cn1c(=O)ccc2cnc(C(F)(F)F)cc21)Nc1scc(Cl)c1-c1nc[nH]n1 [N-(4-chloro-3-(1H-1,2,4-triazol-3-yl)thiophen-2-yl)-2-(2-oxo-7-(trifluoromethyl)-1,6-naphthyridin-1(2H)-yl)acetamide] |
| < 0.1 | < 0.1 | < 0.1 | N#Cc1ccc2c(ccc(=O)n2CC(=O)Nc2scc(Cl)c2-c2nc[nH]n2)c1 [N-(4-chloro-3-(1H-1,2,4-triazol-3-yl)thiophen-2-yl)-2-(6-cyano-2-oxoquinolin-1(2H)-yl)acetamide] |
| 0.1 to 10 | 0.1 to 10 | 0.1 to 10 | CN(C)CCN(C(=O)Cn1c(=O)ccc2cc(C(F)(F)F)ccc21)c1scc(Cl)c1-c1nc[nH]n1 [N-(4-chloro-3-(1H-1,2,4-triazol-3-yl)thiophen-2-yl)-N-(2-(dimethylamino)ethyl)-2-(2-oxo-6-(trifluoromethyl)quinolin-1(2H)-yl)acetamide] |
| < 0.1 | < 0.1 | < 0.1 | O=C(CN1C(=O)CCc2ccccc21)Nc1scc(Cl)c1-c1ncn[nH]1 [N-(4-chloro-3-(1H-1,2,4-triazol-5-yl)thiophen-2-yl)-2-(2-oxo-3,4-dihydroquinolin-1(2H)-yl)acetamide] |
| < 0.1 | < 0.1 | < 0.1 | O=C(Cn1c(=O)ccc2nc(C(F)(F)F)ccc21)Nc1scc(Cl)c1-c1ncn[nH]1 [N-(4-chloro-3-(1H-1,2,4-triazol-5-yl)thiophen-2-yl)-2-(2-oxo-6-(trifluoromethyl)-1,5-naphthyridin-1(2H)-yl)acetamide] |
| < 0.1 | < 0.1 | < 0.1 | O=C(Cn1c(=O)ccc2cc(C(F)(F)F)ccc21)Nc1scc(Cl)c1-c1ncn[nH]1 [N-(4-chloro-3-(1H-1,2,4-triazol-5-yl)thiophen-2-yl)-2-(2-oxo-6-(trifluoromethyl)quinolin-1(2H)-yl)acetamide] |
| < 0.1 | < 0.1 | < 0.1 | O=C(Cn1c(=O)ccn2nc(C(F)(F)F)cc12)Nc1scc(Cl)c1-c1ncn[nH]1 [N-(4-chloro-3-(1H-1,2,4-triazol-5-yl)thiophen-2-yl)-2-(5-oxo-2-(trifluoromethyl)pyrazolo[1,5-a]pyrimidin-4(5H)-yl)acetamide] |
| < 0.1 | < 0.1 | < 0.1 | O=C(Cn1c(=O)ccn2nccc12)Nc1scc(Cl)c1-c1ncn[nH]1 [N-(4-chloro-3-(1H-1,2,4-triazol-5-yl)thiophen-2-yl)-2-(5-oxopyrazolo[1,5-a]pyrimidin-4(5H)-yl)acetamide] |
| < 0.1 | < 0.1 | < 0.1 | O=C(Cc1cccc2cnccc12)Nc1scc(Cl)c1-c1ncn[nH]1 [N-(4-chloro-3-(1H-1,2,4-triazol-5-yl)thiophen-2-yl)-2-(isoquinolin-5-yl)acetamide] |
| < 0.1 | < 0.1 | < 0.1 | Cc1n[nH]c(-c2c(Cl)csc2NC(=O)CN2C(=O)CCc3ncccc32)n1 [N-(4-chloro-3-(3-methyl-1H-1,2,4-triazol-5-yl)thiophen-2-yl)-2-(2-oxo-3,4-dihydro-1,5-naphthyridin-1(2H)-yl)acetamide] |
| < 0.1 | < 0.1 | < 0.1 | O=C(CN1C(=O)CCc2ncccc21)Nc1scc(Cl)c1-c1nccs1 [N-(4-chloro-3-(thiazol-2-yl)thiophen-2-yl)-2-(2-oxo-3,4-dihydro-1,5-naphthyridin-1(2H)-yl)acetamide] |
| < 0.1 | < 0.1 | < 0.1 | Cn1cnc(-c2c(C#N)csc2NC(=O)CN2C(=O)CCc3ncccc32)n1 [N-(4-cyano-3-(1-methyl-1H-1,2,4-triazol-3-yl)thiophen-2-yl)-2-(2-oxo-3,4-dihydro-1,5-naphthyridin-1(2H)-yl)acetamide] |
| < 0.1 | < 0.1 | < 0.1 | Cn1cnc(-c2c(C#N)csc2NC(=O)Cc2cccc3ncccc23)n1 [N-(4-cyano-3-(1-methyl-1H-1,2,4-triazol-3-yl)thiophen-2-yl)-2-(quinolin-5-yl)acetamide] |
| 0.1 to 10 | 0.1 to 10 | 0.1 to 10 | N#Cc1csc(NC(=O)Cn2c(=O)ccc3cc(C(F)(F)F)ccc32)c1-n1ccnn1 [N-(4-cyano-3-(1H-1,2,3-triazol-1-yl)thiophen-2-yl)-2-(2-oxo-6-triazol-1-yl)-4-cyanothiophen-2-yl)-2-(2-oxo-6-(trifluoromethyl)quinolin-1(2H)-yl)acetamide] |
| < 0.1 | < 0.1 | < 0.1 | N#Cc1csc(NC(=O)CN2C(=O)CCc3ncccc32)c1-c1nc[nH]n1 [N-(4-cyano-3-(1H-1,2,4-triazol-3-yl)thiophen-2-yl)-2-(2-oxo-3,4-dihydro-1,5-naphthyridin-1(2H)-yl)acetamide] |
| < 0.1 | < 0.1 | < 0.1 | N#Cc1csc(NC(=O)CN2C(=O)CCc3ccccc32)c1-c1ncn[nH]1 [N-(4-cyano-3-(1H-1,2,4-triazol-5-yl)thiophen-2-yl)-2-(2-oxo-3,4-dihydroquinolin-1(2H)-yl)acetamide] |
| < 0.1 | < 0.1 | < 0.1 | N#Cc1csc(NC(=O)Cc2cccc3cnccc23)c1-c1ncn[nH]1 [N-(4-cyano-3-(1H-1,2,4-triazol-5-yl)thiophen-2-yl)-2-(isoquinolin-5-yl)acetamide] |
| < 0.1 | < 0.1 | < 0.1 | N#Cc1csc(NC(=O)Cn2c(=O)ccc3cc(C(F)(F)F)ccc32)c1-n1nccn1 [N-(4-cyano-3-(2H-1,2,3-triazol-2-yl)thiophen-2-yl)-2-(2-oxo-6-(trifluoromethyl)quinolin-1(2H)-yl)acetamide] |
| < 0.1 | < 0.1 | < 0.1 | N#Cc1csc(NC(=O)Cc2cccc3ncccc23)c1-c1nnc[nH]1 [N-(4-cyano-3-(4H-1,2,4-triazol-3-yl)thiophen-2-yl)-2-(quinolin-5-yl)acetamide] |
| < 0.1 | < 0.1 | < 0.1 | N#Cc1csc(NC(=O)Cn2c(=O)ccc3cc(C(F)(F)F)ccc32)c1-c1ncco1 [N-(4-cyano-3-(oxazol-2-yl)thiophen-2-yl)-2-(2-oxo-6-(trifluoromethyl)quinolin-1(2H)-yl)acetamide] |
| < 0.1 | < 0.1 | < 0.1 | N#Cc1csc(NC(=O)CN2C(=O)CCc3ncccc32)c1-c1nccs1 [N-(4-cyano-3-(thiazol-2-yl)thiophen-2-yl)-2-(2-oxo-3,4-dihydro-1,5-naphthyridin-1(2H)-yl)acetamide] |
| < 0.1 | < 0.1 | < 0.1 | N#Cc1csc(NC(=O)Cn2c(=O)ccc3cc(C(F)(F)F)ccc32)c1-c1nccs1 [N-(4-cyano-3-(thiazol-2-yl)thiophen-2-yl)-2-(2-oxo-6-(trifluoromethyl)quinolin-1(2H)-yl)acetamide] |
| < 0.1 | < 0.1 | < 0.1 | N#Cc1csc(NC(=O)Cn2c(=O)ccc3cc(C(F)(F)F)ccc32)c1-c1cscn1 [N-(4-cyano-3-(thiazol-4-yl)thiophen-2-yl)-2-(2-oxo-6-(trifluoromethyl)quinolin-1(2H)-yl)acetamide] |
| < 0.1 | < 0.1 | < 10 | Cc1csc(NC(=O)CN2C(=O)CCc3ccccc32)c1-c1ncn[nH]1 [N-(4-methyl-3-(1H-1,2,4-triazol-5-yl)thiophen-2-yl)-2-(2-oxo-3,4-dihydroquinolin-1(2H)-yl)acetamide] |
| < 0.1 | < 0.1 | < 0.1 | Cc1n[nH]c(-c2c(C)csc2NC(=O)CN2C(=O)CCc3ccccc32)n1 [N-(4-methyl-3-(3-methyl-1H-1,2,4-triazol-5-yl)thiophen-2-yl)-2-(2-oxo-3,4-dihydroquinolin-1(2H)-yl)acetamide] |
